Results from ChEMBL document CHEMBL1201861, “Genomics of Drug Sensitity in Cancer screening data, Wellcome Trust Sanger Institute”.

What was measured:
Test in all cases: cells
Conditions in all cases: Homo sapiens
Calu-6 = type: functional, cell-based;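 further: growth of human Calu-6 cells, read out by a cell viability assay, IC50 marking inhibition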
Description: SANGER: Inhibition of human Calu-6 cell growth in a cell viability assay.

NCI-H1650 = type: functional, cell-based;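 further: growth inhibition of human NCI-H1650 cells measured by a cell viability assay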
Description: SANGER: Inhibition of human NCI-H1650 cell growth in a cell viability assay.

GR-ST = type: functional, cell-based
Description: SANGER: Inhibition of human GR-ST cell growth in a cell viability assay.

SK-PN-DW = type: functional, cell-based;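 further: growth inhibition measured with a viability assay on these cells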
Description: SANGER: Inhibition of human SK-PN-DW cell growth in a cell viability assay.

DB = type: functional, cell-based
Description: SANGER: Inhibition of human DB cell growth in a cell viability assay.

NCI-H23 = type: functional, cell-based;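 further: cell viability assay measuring growth inhibition of NCI-H23 cells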
Description: SANGER: Inhibition of human NCI-H23 cell growth in a cell viability assay.

KALS-1 = type: functional, cell-based;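 further: growth inhibition of KALS-1 cells, determined with a cell viability assay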
Description: SANGER: Inhibition of human KALS-1 cell growth in a cell viability assay.

GOTO = type: functional, cell-based;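 further: growth inhibition of GOTO cells, read out by a cell viability assay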
Description: SANGER: Inhibition of human GOTO cell growth in a cell viability assay.

NCI-H1648 = type: functional, cell-based;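 further: cell viability assay measuring inhibition of NCI-H1648 cell growth, from the Sanger screening data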
Description: SANGER: Inhibition of human NCI-H1648 cell growth in a cell viability assay.

KNS-81-FD = type: functional, cell-based;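 further: growth inhibition of KNS-81-FD cells, read out with a cell viability assay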
Description: SANGER: Inhibition of human KNS-81-FD cell growth in a cell viability assay.

HT-144 = type: functional, cell-based
Description: SANGER: Inhibition of human HT-144 cell growth in a cell viability assay.

EW-11 = type: functional, cell-based;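 further: growth inhibition of human EW-11 cells, measured with a cell viability assay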
Description: SANGER: Inhibition of human EW-11 cell growth in a cell viability assay.

KARPAS-299 = type: functional, cell-based
Description: SANGER: Inhibition of human KARPAS-299 cell growth in a cell viability assay.

NB5 = type: functional, cell-based;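 further: growth inhibition of NB5 cells, read out as cell viability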
Description: SANGER: Inhibition of human NB5 cell growth in a cell viability assay.

TE-5 = type: functional, cell-based;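 further: inhibition of cell growth, read out by a cell viability assay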
Description: SANGER: Inhibition of human TE-5 cell growth in a cell viability assay.

NCI-H1838 = type: functional, cell-based;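 further: growth inhibition of NCI-H1838 cells, determined with a cell viability readout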
Description: SANGER: Inhibition of human NCI-H1838 cell growth in a cell viability assay.

RKO = type: functional, cell-based;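 further: growth inhibition of human RKO cells, read out with a cell viability assay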
Description: SANGER: Inhibition of human RKO cell growth in a cell viability assay.

NCI-H1092 = type: functional, cell-based;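 further: cell growth inhibition measured with a cell viability assay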
Description: SANGER: Inhibition of human NCI-H1092 cell growth in a cell viability assay.

TE-8 = type: functional, cell-based;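 further: growth inhibition of TE-8 cells, measured with a cell viability readout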
Description: SANGER: Inhibition of human TE-8 cell growth in a cell viability assay.

no-10 = type: functional, cell-based;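 further: growth inhibition of no-10 cells, read out with a cell viability assay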
Description: SANGER: Inhibition of human no-10 cell growth in a cell viability assay.

EW-16 = type: functional, cell-based;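 further: growth inhibition of human EW-16 cells, read out as cell viability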
Description: SANGER: Inhibition of human EW-16 cell growth in a cell viability assay.

K562 = type: functional, cell-based
Description: SANGER: Inhibition of human K-562 cell growth in a cell viability assay.

SW 962 = type: functional, cell-based;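 further: growth inhibition of human SW962 cells, read out by a cell viability assay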
Description: SANGER: Inhibition of human SW962 cell growth in a cell viability assay.

COLO-800 = type: functional, cell-based;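 further: growth inhibition of COLO-800 cells, read out with a cell viability assay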
Description: SANGER: Inhibition of human COLO-800 cell growth in a cell viability assay.

L-363 = type: functional, cell-based
Description: SANGER: Inhibition of human L-363 cell growth in a cell viability assay.

NCI-H226 = type: functional, cell-based;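 further: cell viability read-out used to gauge growth inhibition of the cells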
Description: SANGER: Inhibition of human NCI-H226 cell growth in a cell viability assay.

TK-10 = type: functional, cell-based;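 further: growth inhibition of TK-10 cells, read out in a cell viability assay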
Description: SANGER: Inhibition of human TK10 cell growth in a cell viability assay.

HD-MY-Z = type: functional, cell-based;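 further: growth inhibition of HD-MY-Z cells, read out with a cell viability assay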
Description: SANGER: Inhibition of human HD-MY-Z cell growth in a cell viability assay.

MZ7-mel = type: functional, cell-based;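 further: growth inhibition of human MZ7-mel cells, measured by a cell viability assay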
Description: SANGER: Inhibition of human MZ7-mel cell growth in a cell viability assay.

NCI-H1155 = type: functional, cell-based;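 further: cell growth inhibition measured by a viability assay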
Description: SANGER: Inhibition of human NCI-H1155 cell growth in a cell viability assay.

CGTH-W-1 = type: functional, cell-based;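 further: growth inhibition of human CGTH-W-1 cells measured by cell viability assay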
Description: SANGER: Inhibition of human CGTH-W-1 cell growth in a cell viability assay.

SK-NEP-1 = type: functional, cell-based;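 further: growth inhibition of human SK-NEP-1 cells, read out by a cell viability assay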
Description: SANGER: Inhibition of human SK-NEP-1 cell growth in a cell viability assay.

TGBC1TKB = type: functional, cell-based;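 further: growth inhibition of TGBC1TKB cells, read out by a cell viability assay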
Description: SANGER: Inhibition of human TGBC1TKB cell growth in a cell viability assay.

MZ1-PC = type: functional, cell-based;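 further: cell viability assay measuring growth inhibition of human MZ1-PC cells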
Description: SANGER: Inhibition of human MZ1-PC cell growth in a cell viability assay.

LOX IMVI = type: functional, cell-based
Description: SANGER: Inhibition of human LOXIMVI cell growth in a cell viability assay.

SH-4 = type: functional, cell-based;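 further: growth inhibition of SH-4 cells, read out with a cell viability assay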
Description: SANGER: Inhibition of human SH-4 cell growth in a cell viability assay.

IA-LM = type: functional, cell-based;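 further: cell viability assay measuring growth inhibition of human IA-LM cells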
Description: SANGER: Inhibition of human IA-LM cell growth in a cell viability assay.

U-87 MG = type: functional, cell-based, U-87MG ATCC;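 further: growth inhibition of the cells measured with a viability assay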
Description: SANGER: Inhibition of human U-87-MG cell growth in a cell viability assay.

LC-2-ad = type: functional, cell-based;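 further: growth inhibition of human LC-2-ad cells, read out with a cell viability assay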
Description: SANGER: Inhibition of human LC-2-ad cell growth in a cell viability assay.

KLE = type: functional, cell-based;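 further: growth inhibition of human KLE cells, read out with a cell viability assay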
Description: SANGER: Inhibition of human KLE cell growth in a cell viability assay.

RXF 393 = type: functional, cell-based;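 further: growth inhibition of human RXF 393 cells, read out with a cell viability assay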
Description: SANGER: Inhibition of human RXF393 cell growth in a cell viability assay.

TE-12 = type: functional, cell-based;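 further: growth inhibition of TE-12 cells, read out by a cell viability assay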
Description: SANGER: Inhibition of human TE-12 cell growth in a cell viability assay.

SBC-1 = type: functional, cell-based;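 further: cell viability assay measuring growth inhibition of the SBC-1 cell line, IC50 being the concentration that halves growth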
Description: SANGER: Inhibition of human SBC-1 cell growth in a cell viability assay.

VA-ES-BJ = type: functional, cell-based;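 further: growth inhibition of the VA-ES-BJ cell line, read out by a cell viability assay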
Description: SANGER: Inhibition of human VA-ES-BJ cell growth in a cell viability assay.

EM-2 = type: functional, cell-based;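 further: growth inhibition of EM-2 cells, read out with a cell viability assay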
Description: SANGER: Inhibition of human EM-2 cell growth in a cell viability assay.

NCI-H1355 = type: functional, cell-based;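 further: growth inhibition of human NCI-H1355 cells, read out by a cell viability assay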
Description: SANGER: Inhibition of human NCI-H1355 cell growth in a cell viability assay.

KGN = type: functional, cell-based;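 further: growth inhibition of KGN cells, read out with a cell viability assay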
Description: SANGER: Inhibition of human KGN cell growth in a cell viability assay.

KINGS-1 = type: functional, cell-based;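 further: cell viability assay measuring suppression of KINGS-1 cell growth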
Description: SANGER: Inhibition of human KINGS-1 cell growth in a cell viability assay.

NCI-H1395 = type: functional, cell-based;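 further: cell viability assay read-out quantifying reduced proliferation of human NCI-H1395 cells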
Description: SANGER: Inhibition of human NCI-H1395 cell growth in a cell viability assay.

NEC8 = type: functional, cell-based;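 further: growth inhibition of human NEC8 cells, read out by a cell viability assay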
Description: SANGER: Inhibition of human NEC8 cell growth in a cell viability assay.

A101D = type: functional, cell-based;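 further: growth inhibition of the cell line, measured with a viability assay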
Description: SANGER: Inhibition of human A101D cell growth in a cell viability assay.

NCI-H2126 = type: functional, cell-based;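 further: growth inhibition of the cancer cell line, determined with a cell viability readout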
Description: SANGER: Inhibition of human NCI-H2126 cell growth in a cell viability assay.

no-11 = type: functional, cell-based;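 further: growth inhibition of human NO-11 cells, read out with a cell viability assay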
Description: SANGER: Inhibition of human no-11 cell growth in a cell viability assay.

SF-126 = type: functional, cell-based;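 further: growth inhibition of human SF126 cells, read out with a cell viability assay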
Description: SANGER: Inhibition of human SF126 cell growth in a cell viability assay.

MS-1 = type: functional, cell-based;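 further: growth inhibition of MS-1 cells, read out by cell viability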
Description: SANGER: Inhibition of human MS-1 cell growth in a cell viability assay.

DEL = type: functional, cell-based
Description: SANGER: Inhibition of human DEL cell growth in a cell viability assay.

ML-2 = type: functional, cell-based
Description: SANGER: Inhibition of human ML-2 cell growth in a cell viability assay.

SK-N-DZ = type: functional, cell-based
Description: SANGER: Inhibition of human SK-N-DZ cell growth in a cell viability assay.

GAK = type: functional, cell-based
Description: SANGER: Inhibition of human GAK cell growth in a cell viability assay.

COLO-668 = type: functional, cell-based
Description: SANGER: Inhibition of human COLO-668 cell growth in a cell viability assay.

TE-9 = type: functional, cell-based
Description: SANGER: Inhibition of human TE-9 cell growth in a cell viability assay.

EKVX = type: functional, cell-based
Description: SANGER: Inhibition of human EKVX cell growth in a cell viability assay.

HC-1 = type: functional, cell-based
Description: SANGER: Inhibition of human HC-1 cell growth in a cell viability assay.

EW-3 = type: functional, cell-based
Description: SANGER: Inhibition of human EW-3 cell growth in a cell viability assay.

EW-24 = type: functional, cell-based
Description: SANGER: Inhibition of human EW-24 cell growth in a cell viability assay.

LB373-MEL-D = type: functional, cell-based
Description: SANGER: Inhibition of human LB373-MEL-D cell growth in a cell viability assay.

Compound `Cn1c(=O)n(-c2ccc(C(C)(C)C#N)cc2)c2c3cc(-c4cnc5ccccc5c4)ccc3ncc21` [DACTOLISIB] has an IC50 (Calu-6) greater than 2000 nM, an IC50 (NCI-H1650) of 204 nM and an IC50 (GR-ST) of 52.9 nM. For the same compound, the IC50 (SK-PN-DW) was 235 nM, the IC50 (DB) was 27.4 nM and the IC50 (NCI-H23) was 219 nM. The IC50 (KALS-1) was 82.5 nM, the IC50 (GOTO) was 250 nM and the IC50 (NCI-H1648) was 113 nM. It also gave an IC50 (KNS-81-FD) of 19.5 nM, an IC50 (HT-144) of 196 nM and an IC50 (EW-11) of 96.9 nM. For the same compound, the IC50 (KARPAS-299) was 1790 nM, the IC50 (NB5) was 40.6 nM and the IC50 (TE-5) was 46.8 nM. The IC50 (NCI-H1838) was 1020 nM, the IC50 (RKO) was 38.3 nM and the IC50 (NCI-H1092) was 145 nM. For the same compound, the IC50 (TE-8) was 66.5 nM, the IC50 (no-10) was 201 nM and the IC50 (EW-16) was 18 nM. The IC50 (K562) was greater than 2000 nM, the IC50 (SW 962) was 26.8 nM and the IC50 (COLO-800) was 32.9 nM. It also gave an IC50 (L-363) of 10.7 nM, an IC50 (NCI-H226) of 708 nM and an IC50 (TK-10) of 100 nM. The IC50 (HD-MY-Z) was 44.9 nM, the IC50 (MZ7-mel) was 324 nM and the IC50 (NCI-H1155) was 48.3 nM. It also gave an IC50 (CGTH-W-1) of 20.6 nM, an IC50 (SK-NEP-1) of 34.2 nM and an IC50 (TGBC1TKB) of 23.1 nM. The IC50 (MZ1-PC) was 206 nM, the IC50 (LOX IMVI) was 15 nM and the IC50 (SH-4) was 75.2 nM. It also gave an IC50 (IA-LM) of 108 nM, an IC50 (U-87 MG) of 301 nM and an IC50 (LC-2-ad) of 159 nM. For the same compound, the IC50 (KLE) was 252 nM, the IC50 (RXF 393) was 21.4 nM and the IC50 (TE-12) was 141 nM. For the same compound, the IC50 (SBC-1) was less than 7.81 nM, the IC50 (VA-ES-BJ) was 17.8 nM and the IC50 (EM-2) was 54.4 nM. It also gave an IC50 (NCI-H1355) of 46.3 nM, an IC50 (KGN) of 56.3 nM and an IC50 (KINGS-1) of 82.3 nM. It also gave an IC50 (NCI-H1395) of 199 nM, an IC50 (NEC8) of 67.2 nM and an IC50 (A101D) of 39 nM. It also gave an IC50 (NCI-H2126) of 148 nM, an IC50 (no-11) of 113 nM and an IC50 (SF-126) of 19.4 nM. The IC50 (MS-1) was 108 nM, the IC50 (DEL) was 20.5 nM and the IC50 (ML-2) was 60.6 nM. It also gave an IC50 (SK-N-DZ) greater than 2000 nM, an IC50 (GAK) of 98.9 nM and an IC50 (COLO-668) of 706 nM. The IC50 (TE-9) was 1130 nM and the IC50 (EKVX) was 101 nM.
For `CCn1c(-c2nonc2N)nc2cnc(Oc3cccc(NC(=O)c4ccc(OCCN5CCOCC5)cc4)c3)cc21` [GSK-269962A], the IC50 (Calu-6) was greater than 2500 nM, the IC50 (NCI-H1650) was greater than 2500 nM and the IC50 (GR-ST) was greater than 2500 nM. The IC50 (HC-1) was greater than 2500 nM, the IC50 (SK-PN-DW) was greater than 2500 nM and the IC50 (DB) was greater than 2500 nM. The IC50 (NCI-H23) was greater than 2500 nM, the IC50 (KALS-1) was greater than 2500 nM and the IC50 (GOTO) was greater than 2500 nM. For the same compound, the IC50 (NCI-H1648) was greater than 2500 nM, the IC50 (KNS-81-FD) was greater than 2500 nM and the IC50 (HT-144) was greater than 2500 nM. It also gave an IC50 (EW-11) greater than 2500 nM, an IC50 (EW-3) greater than 2500 nM and an IC50 (KARPAS-299) greater than 2500 nM. For the same compound, the IC50 (NB5) was greater than 2500 nM, the IC50 (TE-5) was greater than 2500 nM and the IC50 (NCI-H1838) was greater than 2500 nM. For the same compound, the IC50 (RKO) was greater than 2500 nM, the IC50 (NCI-H1092) was greater than 2500 nM and the IC50 (TE-8) was greater than 2500 nM. For the same compound, the IC50 (no-10) was 668 nM, the IC50 (EW-16) was greater than 2500 nM and the IC50 (K562) was greater than 2500 nM. The IC50 (SW 962) was greater than 2500 nM, the IC50 (COLO-800) was greater than 2500 nM and the IC50 (L-363) was greater than 2500 nM. For the same compound, the IC50 (NCI-H226) was greater than 2500 nM, the IC50 (TK-10) was greater than 2500 nM and the IC50 (HD-MY-Z) was greater than 2500 nM. The IC50 (MZ7-mel) was greater than 2500 nM, the IC50 (NCI-H1155) was greater than 2500 nM and the IC50 (CGTH-W-1) was greater than 2500 nM. It also gave an IC50 (SK-NEP-1) greater than 2500 nM, an IC50 (TGBC1TKB) greater than 2500 nM and an IC50 (MZ1-PC) greater than 2500 nM. It also gave an IC50 (LOX IMVI) greater than 2500 nM, an IC50 (SH-4) greater than 2500 nM and an IC50 (U-87 MG) greater than 2500 nM. For the same compound, the IC50 (LC-2-ad) was greater than 2500 nM, the IC50 (RXF 393) was 393 nM and the IC50 (TE-12) was greater than 2500 nM. For the same compound, the IC50 (SBC-1) was greater than 2500 nM, the IC50 (VA-ES-BJ) was greater than 2500 nM and the IC50 (EM-2) was 2460 nM. The IC50 (NCI-H1355) was greater than 2500 nM, the IC50 (KGN) was 567 nM and the IC50 (KINGS-1) was greater than 2500 nM. It also gave an IC50 (NCI-H1395) greater than 2500 nM, an IC50 (NEC8) greater than 2500 nM and an IC50 (A101D) of 1870 nM. For the same compound, the IC50 (NCI-H2126) was greater than 2500 nM, the IC50 (EW-24) was greater than 2500 nM and the IC50 (no-11) was greater than 2500 nM. It also gave an IC50 (SF-126) greater than 2500 nM, an IC50 (MS-1) greater than 2500 nM and an IC50 (DEL) greater than 2500 nM. It also gave an IC50 (ML-2) greater than 2500 nM, an IC50 (SK-N-DZ) greater than 2500 nM and an IC50 (LB373-MEL-D) greater than 2500 nM. The IC50 (GAK) was greater than 2500 nM, the IC50 (COLO-668) was greater than 2500 nM and the IC50 (TE-9) was greater than 2500 nM. For the same compound, the IC50 (EKVX) was greater than 2500 nM.
